One data set has as its system VEGFR kinases. The settings on record: not dependent on a specific ligand; cited from earlier work.
The nature of data set [1]: Particle size volume distribution by laser diffraction (Sympatec Helos). The settings on record: spherical particles presumed. It counts as physicochemical. From the text:
When used herein, the term “micronised” is intended to mean that the particle size distribution is so that at least 90% of the particles have a particle diameter of less than 30 μm (calculated from the volume distribution curve under the presumption of spherical particles), i.e. a d90 value of at the most 30 μm. It is well-known to the skilled person that parameters used to describe a given particle size distribution may vary considerably dependent on the specific equipment and settings used. Therefore, it is important to note that whenever the terms “particle size distribution”, “particle diameter”, “d50”, “d90”, “d95”, “d99”, etc. are used herein it should be understood that the specific values or ranges used in connection therewith are always meant to be determined from the volume distribution curve under the presumption of spherical particles using laser diffraction and the conditions set forth in the section entitled “Determination of particle size distribution” herein.
Determination of the particle size volume distribution of pynasunate was performed by laser diffraction using the following equipment and settings: […]

Take `Clc1ccc(Nc2nnc(Cc3ccncc3)c3ccccc23)cc1` [(4-chlorophenyl)[4-(4-pyridylmethyl)-phthalazin-1-yl]]: the “inhibition of VEGFR kinases” value in the data set on VEGFR kinases is “inhibitor of all three VEGFR kinases”.

`Clc1ccc(Nc2nnc(Cc3ccncc3)c3ccccc23)cc1` [pynasunate, (4-chlorophenyl)[4-(4-pyridylmethyl)-phthalazin-1-yl]ammonium hydrogen succinate]: in data set [1], the “d50 particle size diameter” value was 6 μm and the “d90 particle size diameter” value was 15 μm.

(Values after patent US20060275365A1, “Immediate-release and high-drug-load pharmaceutical formulations of micronised (4-chlorophenyl) [4-(4-pyridylmethyl)phthalazin-1-yl] and salts thereof” (priority 2005, published 2006).)
